Among the data in patent US20240181125A1, “COMPOSITIONS AND METHODS FOR SCARLESS WOUND HEALING IN DIABETES” (Washington University, priority 2022, published 2024) are lumen density values, retold here.

Bridge positions count the residues as written; N and C are the ends. Peptide text beside a SMILES is read from it. * marks the point of attachment. FITC = O=C1OC2(c3ccc(O)cc3Oc3cc(O)ccc32)c2ccc(NC(=S)*)cc21

This assay has as its system HAECs. Briefly: Endothelial cell lumen formation in 3D collagen gel. To be noted: high glucose and TGFβ1. Format: cell-based, human. Here is the method:
A 3D collagen gel model was used to evaluate endothelial cell lumen formation under high glucose and TGFβ1 conditions. Briefly, the collagen gel was formed by mixing 4 mg/ml of rat tail type I collagen solution (Life Technologies), FBS, DMEM, and NaOH. Then 500 μL of the mixture was transferred to a 48-well plate and placed in a 37° C. incubator for 30 minutes to allow gelation. HAECs were then seeded into the collagen gel at a density of 2×10^4 cells/well. TGFβ1 (10 ng/ml) or TGFβ1 (10 ng/ml)/PTβR2I (10 μg/mL) was then added. After three days of culturing, cells were stained with F-actin (Abcam, ab176753) and DAPI (Millipore-Sigma). The constructs were imaged by
Olympus FV1200 confocal microscopy with z-stack mode. The lumen density was calculated from the images.

For `CC(C)C[C@@H]1NC(=O)CNC(=O)[C@@H](NC(=O)[C@@H](N)CCC(=O)O)CSSC[C@@H](C(=O)N[C@@H](CCCCNC(=S)Nc2ccc3c(c2)C(=O)OC32c3ccc(O)cc3Oc3cc(O)ccc32)C(=O)O)NC(=O)[C@H](CC(C)C)NC(=O)[C@H](CCCNC(=N)N)NC(=O)[C@H](Cc2c[nH]c3ccccc23)NC(=O)[C@H](C(C)C)NC(=O)[C@H](CCCNC(=N)N)NC(=O)[C@H](CC(=O)O)NC(=O)[C@@H]2CCCN2C(=O)[C@H](CCCNC(=N)N)NC(=O)CNC(=O)[C@H](C(C)C)NC(=O)[C@@H]2CCCN2C(=O)[C@H](CC(C)C)NC1=O` [PTβR2I, ECGLLPVGRPDRVWRLCK-FITC] (H-ECGLLPVGRPDRVWRLCK(FITC)-OH; disulfide 2-17; N-terminus and C-terminus assumed), the lumen density result is on record as “significantly increased the lumen density”.
